From patent US20080234373A1, “Compound Useful For the Prevention and Treatment of Left Ventricular Hypertrophy in Dialysed Patients” (SIGMA-TAU INDUSTRIE FARMACEUTICHE RIUNITE S.P.A., priority 2005, published 2008)

Experiments:
[1] = test system: left ventricular (LV) muscle mass and LV systolic and diastolic function; details: 58 patients with primary glomerulonephritis and moderate chronic renal failure; cited from earlier work
[2] = test system: left ventricular hypertrophy (LVH) in ESRD dialysed patients; assay: Clinical trial of propionyl L-carnitine in ESRD patients on dialysis (multicentre, randomized, double-blind, placebo-controlled; echocardiography); assay type: in vivo
Experimental: A clinical trial (multicentre, parallel, randomized, double-blind, dose-ranging placebo-controlled study in 300 patients) useful for evaluating both preventive and/or curative effect of the treatment with propionyl L-carnitine (3 and 6 mg/kg given intravenously three times a week at the end of the hemodyalisis session for 26 weeks) has been done.
Inclusion Criteria • 1) male or female out-patients aged >18 years, suffering from ESRD on bicarbonate dialysis three times a week; • 2) patients who have reached a certain degree of dialytic stability (at least since six months on dialysis), so that the variability due to the progressive patient adaptation of the therapeutic treatment is controlled, presenting no clinical signs of hydric overload at the end of dialysis; • 3) patients showing a degree of cardiac deterioration defined as inter-ventricular septum and left ventricular wall thickness >11 mm; • 4) patients with left ventricular ejection fraction >40%; • 5) patients under stable pharmacological treatment for at least three months; • 6) absence of acute ischaemic events (effort angina, unstable angina, AMI) during the last three months; • 7) presence of an adequate acoustic window and a good echogenicity; • 8) capacity of co-operating with the administered questionnaire. […]

SMILES | LV ejection fraction, early and late transmittal flow velocities and early to late LV inflow velocities ratio [1] | signs of LVH (a)-(c): left-ventricular septum and posterior wall thickness, end-systolic and end-diastolic size and volume, ejection fraction ([2]; 3 and 6 mg/kg intravenously three times a week at end of hemodialysis for 26 weeks, preliminary ANOVA analysis, treated versus control group) | progression of the signs of LVH (a)-(c) respect to base line ([2]; 3 and 6 mg/kg intravenously three times a week for 26 weeks, T26 vs T0 in treated group, control group worsened)
C[C@H](CS)C(=O)N1CCC[C@H]1C(=O)O [captopril] | not significantly affected | – | –
CCOC(=O)[C@H](CCc1ccccc1)N[C@@H](C)C(=O)N1CCC[C@H]1C(=O)O [enalapril] | not significantly affected | – | –
CCC(=O)O[C@H](CC(=O)[O-])C[N+](C)(C)C [propionyl L-carnitine] | – | useful for treating the signs of LVH | able to reduce the progression of the signs of LVH
